Consider one compound from ChEMBL document CHEMBL4311978, “Transferrin conjugates of antitubercular drug isoniazid: Synthesis and in vitro efficacy” (Eur J Med Chem, 2019).

Values after ≈ are worked out from the molar mass of the structure shown. Active and inactive are the calls of the source. No cut-off for these calls is given here. Bounds are passed on as bounds.

Test [1] has as its system Mycobacterium tuberculosis. Nature of the test: Antitubercular activity against Mycobacterium tuberculosis H37Rv assessed as reduction in bacterial cell viability incubated for 5 days by microplate alamar blue assay. The class given is functional. As to conditions: 120 h.
Test [2] relates to Mycobacterium tuberculosis. Nature of the test: Antitubercular activity against Mycobacterium tuberculosis H37Rv infected in human THP1 cells assessed as reduction in CFU incubated for 48 hrs. The class given is functional, organism-based.
The subject of test [3] is THP-1. The test can be described thus: Cytotoxicity against human THP1 cells assessed as reduction in cell viability incubated for 48 hrs by MTT assay. The class given is cell-based. Particulars: THP-1, 48 h.

`NNC(=O)c1ccncc1` [ISONIAZID]: the MIC90 in test [1] came to 0.25 µg/mL (≈ 1.82 µM). In addition, the outcome in test [2] was Active. The IC50 in test [3] was greater than 25 µg/mL.
